Test results as given in patent US9169252B2 (BRISTOL-MYERS SQUIBB COMPANY, priority 2014, dated 2015).
Where a name gives a salt, the structure may show the parent alone. Read-outs that look alike come from different tables or passages of the source.

How the values were obtained:
[1] = biological target: IRAK4 (Homo sapiens (Human), UniProt Q9NWZ3); experiment: IRAK4 Inhibition Assay; type: biochemical; settings: ATP 500 μM, read-out: IRAK4 IC50
Method in brief: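 IRAK4 combined with fluorescent substrate and compounds, reacted 60 min at room temperature, stopped with 35 mM EDTA. Substrate and phosphorylated product separated electrophoretically on a Caliper LabChip 3000 mobility-shift reader.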

[2] = tested on: TLR2 induced IL-6 in peripheral blood mononuclear cells (PBMCs); experiment: PBMC TLR2 Induced IL-6 Assay; type: cell-based, human; settings: IL-6 by ELISA; for EC50: read-out: Cell EC50; for IC50: read-out: Cell IC50
Method in brief: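 Lipoteichoic acid at 10 µg/ml served as TLR2 stimulus for 5 hours, following a 30-minute compound pretreatment at 37° C. Cells were Ficoll-isolated human PBMCs, 250000 cells/well, cultured in RPMI plus 10% heat-inactivated FCS.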

[3] = Homo sapiens, PBMC, PBMC TLR2 Induced IL-6 Assay, lipoteichoic acid stimulation
[4] = Homo sapiens, PBMC, human PBMCs, lipoteichoic acid stimulated
[5] = human PBMCs, lipoteichoic acid stimulated

IRAK4, sequence (Q9NWZ3 whole entry, species assumed): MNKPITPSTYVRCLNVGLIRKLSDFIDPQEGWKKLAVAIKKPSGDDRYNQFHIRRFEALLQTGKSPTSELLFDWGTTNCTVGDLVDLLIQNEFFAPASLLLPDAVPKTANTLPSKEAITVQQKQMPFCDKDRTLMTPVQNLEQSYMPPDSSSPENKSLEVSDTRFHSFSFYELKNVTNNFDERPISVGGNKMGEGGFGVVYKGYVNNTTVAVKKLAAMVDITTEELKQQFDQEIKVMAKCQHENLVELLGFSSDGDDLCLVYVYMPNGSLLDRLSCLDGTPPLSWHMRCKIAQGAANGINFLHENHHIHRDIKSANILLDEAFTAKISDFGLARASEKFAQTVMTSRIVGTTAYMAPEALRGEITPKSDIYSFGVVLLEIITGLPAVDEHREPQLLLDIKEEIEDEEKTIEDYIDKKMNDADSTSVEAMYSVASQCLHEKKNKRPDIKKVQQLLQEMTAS

`CC(C)Nc1cc(-n2ccc3cc(C#N)cnc32)ncc1C(=O)NC12CCC(O)(CC1)C2` [Example 14, 6-(5-cyano-1H-pyrrolo[2,3-b]pyridin-1-yl)-N-(4-hydroxybicyclo[2.2.1]heptan-1-yl)-4-(isopropylamino)nicotinamide] showed an IC50 ([1]; IRAK4 Inhibition Assay) of 14.8 nM and an EC50 [2, 3] of 286 nM.

With `COC1CCN(c2ccc(NC(=O)c3cnc(-n4ncc5cc(C#N)cnc54)cc3NC(C)C)cn2)CC1` [Example 247] the IC50 ([1]; IRAK4 Inhibition Assay) was 6.8 nM and the EC50 [2, 3] was 173 nM.

`CC(C)Nc1cc(-n2ncc3cc(C#N)cnc32)ncc1C(=O)NCCC1(O)CCNC1` (stereo not shown) [Example 255] was tested, and the IC50 ([1]; IRAK4 Inhibition Assay) was 7.5 nM and the EC50 [2, 3] was 329 nM.

`CC(C)Nc1cc(-n2cnc3cnc(N)nc32)ncc1C(=O)NC[C@@H](F)C(C)(C)F` [Example 346] was tested, and the IC50 ([1]; IRAK4 Inhibition Assay) was 3.6 nM and the IC50 [2, 3] was 306 nM.

For `CC(C)(O)[C@H](F)CNC(=O)c1cnc(-n2ncc3cc(C#N)cnc32)cc1NC1CCCOC1` (single isomer, unassigned) [Example 142], the IC50 ([1]; IRAK4 Inhibition Assay) was 11.4 nM and the EC50 [2, 3] was 354 nM.

Work on `CC(C)Nc1cc(-n2ccc3cc(C#N)cnc32)ncc1C(=O)NCCNC(=O)C(C)(C)O` [Example 126, 6-(5-Cyano-1H-pyrrolo[2,3-b]pyridin-1-yl)-N-(2-(2-hydroxy-2-methylpropanamido)ethyl)-4-(isopropylamino)nicotinamide] yielded an IC50 ([1]; IRAK4 Inhibition Assay) of 7.5 nM and an EC50 [2, 3] of 150 nM.

Molecule `CS[C@H]1CC[C@H](NC(=O)c2cnc(-n3ccc4cc(C#N)cnc43)cc2NC(C)C)CC1` [Example 101, 6-(5-Cyano-1H-pyrrolo[2,3-b]pyridin-1-yl)-4-(isopropylamino)-N-((trans)-4-(methylthio)cyclohexyl)nicotinamide] has an IC50 ([1]; IRAK4 Inhibition Assay) of 7.8 nM and an EC50 [2, 3] of 112 nM.

With `CC(C)Nc1cc(-n2ncc3cc(C(F)F)cnc32)ncc1C(=O)NC[C@@H](F)C(C)(C)O` [Example 231] the IC50 ([1]; IRAK4 Inhibition Assay) was 14.2 nM, the EC50 [2, 3] was 237 nM and the IC50 [2, 3] was 544 nM.

`CC(C)(O)[C@H](F)CNC(=O)c1cnc(-n2ncc3cc(Cl)cnc32)cc1NC1COC1` [Example 551] was tested, and the IC50 ([1]; IRAK4 0.6 nM) was 12.6 nM and the IC50 [2, 4] was 212 nM.

In the case of `CC(C)(O)[C@H](F)CNC(=O)c1cnc(-n2ncc3cc(C#N)cnc32)cc1N[C@@H]1CCN(c2ncccn2)C1` [Example 537], the IC50 ([1]; IRAK4 0.6 nM) is reported as 6.8 nM and the EC50 [2, 4] is reported as 159 nM.

For `COC[C@H](F)CNC(=O)c1cnc(-n2ccc3cc(C#N)cnc32)cc1NC(C)C` [Example 127, (R)-6-(5-Cyano-1H-pyrrolo[2,3-b]pyridin-1-yl)-N-(2-fluoro-3-methoxypropyl)-4-(isopropylamino)nicotinamide], the IC50 ([1]; IRAK4 Inhibition Assay) was 2.8 nM and the EC50 [2, 3] was 89 nM.

For `CC(C)(O)[C@H](F)CNC(=O)c1cnc(-n2ccc3cc(C#N)cnc32)cc1NC1CCN(S(C)(=O)=O)CC1` [Example 463], the IC50 ([1]; IRAK4 0.6 nM) was 1.7 nM and the EC50 [2, 4] was 23 nM.

`CC(O)CCNc1cc(-n2ccc3cc(C#N)cnc32)ncc1C(=O)NC[C@@H](F)C(C)(C)O` (single isomer, unassigned) [Example 462] showed an IC50 ([1]; IRAK4 0.6 nM) of 2.9 nM, an EC50 [2, 5] of 66 nM and an IC50 [2, 5] of 398 nM.

For `CC(C)(O)[C@H](F)CNC(=O)c1cnc(-n2ccc3cc(C#N)cnc32)cc1Nc1ccc2nc[nH]c2c1` [Example 439], the IC50 ([1]; IRAK4 0.6 nM) was 2.6 nM and the EC50 [2, 4] was 73 nM.

For `CC(C)Nc1cc(-n2ncc3cnc(N)nc32)ncc1C(=O)NC[C@@H](F)C(C)(C)O` [Example 579], the IC50 ([1]; IRAK4 0.6 nM) was 3.9 nM and the IC50 [2, 4] was 269 nM.

For `CC(C)Nc1cc(-n2ccc3cc(C#N)cnc32)ncc1C(=O)NCC(F)C1(O)COC1` (stereo not shown) [Example 495], the IC50 ([1]; IRAK4 0.6 nM) was 1.8 nM and the IC50 [2, 5] was 215 nM.

`CC(C)(CNc1cc(-n2ncc3cc(C#N)cnc32)ncc1C(=O)NC[C@@H](F)C(C)(C)O)OC(F)F` [Example 601] showed an IC50 ([1]; IRAK4 0.6 nM) of 14.2 nM and an IC50 [2, 4] of 490 nM.

`C[C@@H](CO)Nc1cc(-n2ccc3cc(C#N)cnc32)ncc1C(=O)NC[C@@H](F)C(C)(C)O` [Example 9, 6-(5-cyano-1H-pyrrolo[2,3-b]pyridin-1-yl)-N—((R)-2-fluoro-3-hydroxy-3-methylbutyl)-4-(((S)-1-hydroxypropan-2-yl)amino) nicotinamide] showed an IC50 ([1]; IRAK4 Inhibition Assay) of 1.5 nM, an EC50 [2, 3] of 57 nM and an IC50 [2, 3] of 43 nM.

Work on `Cn1nnnc1-c1ccc(Nc2cc(-n3ncc4cc(C#N)cnc43)ncc2C(=O)NC[C@@H](F)C(C)(C)O)cc1` [Example 527] yielded an IC50 ([1]; IRAK4 0.6 nM) of 3 nM and an EC50 [2, 4] of 228 nM.

Molecule `CC(C)(O)[C@H](F)CNC(=O)c1cnc(-n2cnc3cc(Cl)cnc32)cc1Nc1cnn(CC(F)(F)F)c1` [Example 360] has an IC50 ([1]; IRAK4 Inhibition Assay) of 1.5 nM and an IC50 [2, 3] of 376 nM.

For `CC(C)(O)[C@H](F)CNC(=O)c1cnc(-n2ccc3cc(C#N)cnc32)cc1NCC1COC1` [Example 29, (R)-6-(5-cyano-1H-pyrrolo[2,3-b]pyridin-1-yl)-N-(2-fluoro-3-hydroxy-3-methylbutyl)-4-((oxetan-3-ylmethyl)amino) nicotinamide], the IC50 ([1]; IRAK4 Inhibition Assay) was 3.7 nM and the EC50 [2, 3] was 141 nM.

With `CC(C)Nc1cc(-n2ncc3cc(C#N)cnc32)ncc1C(=O)NC[C@@H](F)C(C)(C)O` [Example 192, (R)-6-(5-Cyano-1H-pyrazolo[3,4-b]pyridin-1-yl)-N-(2-fluoro-3-hydroxy-3-methylbutyl)-4-(isopropylamino)nicotinamide, hydrochloride] the IC50 ([1]; IRAK4 Inhibition Assay, hydrochloride) was 2.6 nM and the EC50 ([2]; PBMC TLR2 Induced IL-6 Assay, lipoteichoic acid stimulation, hydrochloride) was 120 nM.

In the case of `CC(C)Nc1cc(-n2ccc3cc(C#N)cnc32)ncc1C(=O)N[C@H]1CC[C@](O)(c2nccn2C)CC1` [Example 176, 6-(5-cyano-1H-pyrrolo[2,3-b]pyridin-1-yl)-N-((1 s,4s)-4-hydroxy-4-(1-methyl-1H-imidazol-2-yl)cyclohexyl)-4-(isopropylamino) nicotinamide], the IC50 ([1]; IRAK4 Inhibition Assay) is reported as 6.4 nM and the EC50 [2, 3] is reported as 476 nM.

`COC(=O)N1CC(Nc2cc(-n3ncc4cc(C#N)cnc43)ncc2C(=O)NC[C@@H](F)C(C)(C)O)C1` [Example 542] gave an IC50 ([1]; IRAK4 0.6 nM) of 7.3 nM and an IC50 [2, 4] of 973 nM.

Molecule `CC(C)Nc1cc(-n2cnc3cc(C#N)c(N)nc32)ncc1C(=O)NC[C@@H](F)C(C)(C)O` [Example 341] has an IC50 ([1]; IRAK4 Inhibition Assay) of 1.9 nM and an EC50 [2, 3] of 161 nM.

`CC(C)(O)[C@H](F)CNC(=O)c1cnc(-n2ncc3cc(C#N)cnc32)cc1N[C@H]1CCN(c2ncc(F)cn2)C1` [Example 533] gave an IC50 ([1]; IRAK4 0.6 nM) of 10.3 nM and an EC50 [2, 4] of 194 nM.

Molecule `CCCNC(=O)c1cnc(-n2ncc3cc(C#N)cnc32)cc1Nc1cnn(CC(F)F)c1` [Example 389] has an IC50 ([1]; IRAK4 Inhibition Assay) of 4 nM and an IC50 [2, 3] of 241 nM.

Molecule `CC1(CNc2cc(-n3ccc4cc(C#N)cnc43)ncc2C(=O)NC[C@@H](F)C(C)(C)O)COC1` [Example 20, (R)-6-(5-cyano-1H-pyrrolo[2,3-b]pyridin-1-yl)-N-(2-fluoro-3-hydroxy-3-methylbutyl)-4-(((3-methyloxetan-3-yl)methyl)amino)nicotinamide] has an IC50 ([1]; IRAK4 Inhibition Assay) of 5.7 nM and an EC50 [2, 3] of 497 nM.

`CC(C)(O)[C@H](F)CNC(=O)c1cnc(-n2ccc3cc(C#N)cnc32)cc1NC1CCC(NCC(F)(F)F)C1` (stereo partly shown) [Example 489] was tested, and the IC50 ([1]; IRAK4 0.6 nM) was 4.3 nM, the EC50 [2, 5] was 318 nM and the IC50 [2, 5] was 1700 nM.

For `CC(C)(O)[C@H](F)CNC(=O)c1cnc(-n2ncc3cc(C#N)cnc32)cc1NCCOC(F)F` [Example 598], the IC50 ([1]; IRAK4 0.6 nM) was 16.6 nM and the IC50 [2, 4] was 54 nM.

For `CC(C)(O)[C@H](F)CNC(=O)c1cnc(-n2ccc3cc(C#N)cnc32)cc1Nc1cnn(CC(F)(F)F)c1` [Example 371], the IC50 ([1]; IRAK4 Inhibition Assay) was 2.1 nM and the IC50 [2, 3] was 45 nM.

Work on `CCCn1cc(Nc2cc(-n3ncc4cc(C#N)cnc43)ncc2C(=O)NC[C@@H](F)C(C)(C)O)cn1` [Example 380] yielded an IC50 ([1]; IRAK4 Inhibition Assay) of 2.9 nM and an IC50 [2, 3] of 228 nM.

For `CC(C)Nc1cc(-n2ncc3cc(C#N)cnc32)ncc1C(=O)NC[C@@H](F)C(C)(C)OP(=O)(O)O` [Example 191, (R)-4-(6-(5-Cyano-1H-pyrazolo[3,4-b]pyridin-1-yl)-4-(isopropylamino)nicotinamido)-3-fluoro-2-methylbutan-2-yl dihydrogen phosphate], the IC50 ([1]; IRAK4 Inhibition Assay) was 14.7 nM and the EC50 [2, 3] was 10000 nM.

Molecule `CC1COCCN1CCNc1cc(-n2ccc3cc(C#N)cnc32)ncc1C(=O)NC[C@@H](F)C(C)(C)O` (mixture of isomers) [Example 483] has an IC50 ([1]; IRAK4 0.6 nM) of 10.8 nM and an EC50 [2, 4] of 199 nM.

In the case of `CCCNC(=O)c1cnc(-n2ncc3cc(C#N)c(N)nc32)cc1NC(C)C` [Example 326], the IC50 ([1]; IRAK4 Inhibition Assay) is reported as 11.4 nM and the IC50 [2, 3] is reported as 30 nM.

`CC(C)CC(=O)NCc1cnc2c(ccn2-c2cc(NC(C)C)c(C(=O)NC[C@@H](F)C(C)(C)O)cn2)c1` [Example 503] was tested, and the IC50 ([1]; IRAK4 0.6 nM) was 2.3 nM and the IC50 [2, 4] was 99 nM.

`CC(C)(F)CCNc1cc(-n2ncc3cc(C#N)c(N)nc32)ncc1C(=O)NC[C@@H](F)C(C)(C)O` [Example 599] gave an IC50 ([1]; IRAK4 0.6 nM) of 4.8 nM and an IC50 [2, 4] of 275 nM.

Molecule `CC(C)Nc1cc(-n2ccc3cc(C#N)cnc32)ncc1C(=O)N[C@H]1CC[C@@](F)(c2nccn2C)CC1` [Example 182, 6-(5-cyano-1H-pyrrolo[2,3-b]pyridin-1-yl)-N-((trans)-4-fluoro-4-(1-methyl-1H-imidazol-2-yl)cyclohexyl)-4-(isopropylamino)nicotinamide] has an IC50 ([1]; IRAK4 Inhibition Assay) of 1.8 nM and an EC50 [2, 3] of 74 nM.

With `CCNC(=O)c1cnc(-n2ncc3cc(C#N)cnc32)cc1Nc1cnn(CC(F)F)c1` [Example 393] the IC50 ([1]; IRAK4 Inhibition Assay) was 3.5 nM and the IC50 [2, 3] was 250 nM.
